Patent US8648176B2, “Engineered proteins with high affinity for DOTA chelates” (Massachusetts Institute of Technology, priority 2009, dated 2014)
Values joined by “and” are separate entries in the source; they are usually repeats but may differ in a detail not shown here. Equal values may be shown once. One block for each molecule: values may come before it.

Assays:
[1] = test system: CEA-positive (LS174T) tumor; experiment: Three-step PRIT (bsAb, dextran-DOTA-Y clearing agent, radiolabeled DOTA) biodistribution in xenograft mice; type: in vivo; conditions: for tumor uptake/activity, antigen-positive LS174T tumor: PRIT protocol with bsAb and dextran-DOTA-Y
Protocol: (§1) Radiolabeling. DOTA compounds were dissolved at 0.5 mM in ammonium acetate pH 5.6. 1-2 mCi ^177LuCl3 (PerkinElmer, Waltham, Mass.) or ^111InCl3 (Cardinal Health, Dublin, Ohio) were added to the metal chelate and incubated for 1-2 h at 85-95 C. The radiolabeled compounds were purified by RP-HPLC (Humblet et al., Contrast Media Mol. Imaging. 1:196-211, 2006; Misra et al., J. Nucl. Med. 48:1379-1389, 2007) with gamma detection on a 4.6×75 mm Symmetry C18 column using a linear gradient from 0% to 40% B over 15 minutes, at a flow rate of 1 mL/min, where A=10 mM TEAA and B=methanol. The purified compounds were dried under vacuum, resuspended in saline, and filter-sterilized.
(§2) Animal models. All animal handling was performed in accordance with BIDMC IACUC guidelines. Male NCRU-nu/nu mice were purchased from Taconic Farms (Germantown, N.Y.). For biodistribution and tumor uptake, 100-150 μCi ^177Lu- or ^111In-labeled hapten was injected intravenously into the mice. Blood was collected from the tail vein using micro-capillary tubes and counted on a model 1470 Wallac Wizard™ (Perkin Elmer, Wellesley, Mass.) 10-detector gamma counter. Mice were euthanized by intraperitoneal injection of pentobarbital followed by cervical dislocation, a method consistent with the recommendations of the Panel on Euthanasia of the American Veterinary Medical Association. Organs and tumors were resected, washed in PCS three times, weighed, and counted as described above.
We next tested a protocol involving all three reagents to determine the efficacy of our engineered PRIT system. […] After an additional 1 h, 100-150 μCi ^177Lu-DOTA was injected intravenously. At 4 h post-injection of radiolabeled DOTA, tumor uptake was 7.44+/−0.41% ID/g in the antigen-positive tumor, 84-fold higher than the tumor uptake observed for ^177Lu-DOTA alone. Activity was also higher in non-tumor tissue due to binding of ^177Lu-DOTA to residual bsAb in the extravascular compartment. Tumor uptake in the antigen-negative tumor was 9.82+/−0.35% ID/g at 4 h, similar to the antigen-positive tumor due to nonspecific uptake from enhanced permeability and retention (EPR) of the bsAb. […] The LS174T tumor to blood ratio increased from 18+/−2 at 4 h to 380+/−90 at 24 h and was greater than 450 at 48 h. […] The LS174T tumor to kidney ratio increased from approximately 8 at 4 h to about 20 at 24 and 48 h. SPECT/CT images confirmed the quantitative biodistribution data with high PSECT signal in the CEA-positive tumors, lower signal in the CEA-negative tumor and no observable signal in non-tumor tissue.
The pretargeted protocol described above was used to analyze the effect of affinity on the tumor uptake of radiolabeled DOTA. […] The 24 h organ/tissue biodistribution was determined in tumor-bearing mice with each of the four radiolabeled DOTA compounds. […] The activity in the C6 antigen-negative tumor increased with affinity, presumably due to nonspecific uptake of bsAb. The activity in the non-tumor tissues is also higher for the higher affinity compounds due to the higher affinity binding to residual bsAb.

[2] = test system: CEA-negative (C6) tumor; experiment: as above; type: in vivo; conditions: PRIT protocol
Protocol: as §1, §2
We next tested a protocol involving all three reagents to determine the efficacy of our engineered PRIT system. […] After an additional 1 h, 100-150 μCi ^177Lu-DOTA was injected intravenously. At 4 h post-injection of radiolabeled DOTA, tumor uptake was 7.44+/−0.41% ID/g in the antigen-positive tumor, 84-fold higher than the tumor uptake observed for ^177Lu-DOTA alone. […] SPECT/CT images confirmed the quantitative biodistribution data with high PSECT signal in the CEA-positive tumors, lower signal in the CEA-negative tumor and no observable signal in non-tumor tissue.

[3] = MIRD dosimetry estimate from PRIT mouse biodistribution; type: in vivo; conditions: 70 kg man
Protocol: Dosimetry. Radiation doses absorbed by normal tissues other than the red marrow were calculated according to the MIRD scheme. Percent injected activity in tumor, kidneys, liver, blood, and whole-body were calculated from activity measurements. The activity at time 0 was assumed to be 4% ID/g in the kidney and liver, 50% ID/g in the blood, 0% ID/g in the tumor and 100% in the whole-body. Isotope decay-adjusted activity was integrated over time, with a conservative assumption that the 48 h organ % ID remained constant thereafter. S values for ^90Y and ^177Lu were used to calculate dosimetry estimates in an adult male reference (Stabin and Siegel, Health Phys. 85:294-310, 2003). The red marrow dose was calculated as described (Wessels et al., J. Nucl. Med. 45:1725-1733, 2004) from blood activity measurements. […] Tumor doses were calculated from self-dose only using S-factors for a unit density sphere of size 500 g (the average LS174T tumor size scaled by 2000).
From the PRIT organ biodistribution data, the radiation dose to the kidney, liver, red marrow, and antigen-positive tumor was estimated for a 70 kg person for ^90Y and ^177Lu. […] The estimated doses to the kidney, liver, and red marrow were calculated from both the self-dose and cross-dose, wherein the whole-body activity was used to determine the cross-dose. The estimated dose to the tumor was determined from self-dose only. […]

[4] = Organ uptake of DOTA-based compounds in normal CD1 mice; type: in vivo; conditions: 4 h p.i., compared to radiolabeled DOTA-biotin and DOTA-Bn
[5] = molecular target: DOTA-Bn-biotin-Y; experiment: KD by titration of yeast surface-displayed scFv, flow cytometry; type: binding; conditions: hapten DOTA-Bn-Biotin, metal Y, 37° C., mean ± SD
Protocol: Briefly, yeast expressing an scFv clone on their surface were grown, washed with PBSA and incubated with various concentrations of DOTA-Bn-biotin-metal long enough to allow for at least a 95% approach to equilibrium. Generally, 5×10^5 induced cells were used for each concentration point. When antigen concentrations less than 10 pM were assayed, the titration was performed with 2.5×10^4 induced and 7.5×10^5 non-induced cells to ensure antigen excess over the scFv without requiring impractically large volumes. The addition of non-induced cells aids pelleting during centrifugation (Hackel et al., J. Mol. Biol. 381:1238-1252, 2008). When antigen concentrations greater than 100 nM were used, non-specific antigen binding to the yeast surface was taken into account. Yeast expressing an irrelevant scFv on their surface were treated in the same manner as the yeast displaying the scFv of interest, and mean total phycoeryhthrein fluorescence (MFUtot) due to non-specific binding was measured by flow cytometry and averaged over three replicates. This value was subtracted from the MFUtot for the yeast of interest, and the data was fit by least-squares regression.

[6] = molecular target: DOTA-Bn-Ga; experiment: KD by competition with DOTA-Bn-biotin-Y, yeast surface-displayed scFv; type: binding; conditions: hapten DOTA-Bn, metal Ga; mean ± SD
Protocol: (§3) KD Measurements for DOTA-metal and DOTA-Bn-metal. To determine the KD for scFv binding to nonbiotinylated haptens, the above protocol was modified to a competition-based assay as follows. […] Incubation, staining, and flow cytometry analysis was the same as that for biotinylated antigen. MFUtot as a function of the concentration of the nonbiotinylated antigen ([Ag]), a normalization constant (MFUrange), the minimal total mean fluorescence (MFUmin), the KD for DOTA-Bn-biotin-Y (KD, biot), DOTA-Bn-biotin-Y concentration ([Agbiot]), and the KD for the antigen of interest (KD) follows this modified equation:
(§4) [formula] The data was fit by least squares regression as before, varying MFUmin, MFUrange and KD.

[7] = molecular target: DOTA-Bn-Gd; experiment: as above; type: binding; conditions: hapten DOTA-Bn, metal Gd; mean ± SD
Protocol: as §3, §4

[8] = molecular target: DOTA-Bn-In; experiment: as above; type: binding; conditions: hapten DOTA-Bn, metal In; mean ± SD
Protocol: as §3, §4

[9] = molecular target: DOTA-Bn-Lu; experiment: as above; type: binding; conditions: hapten DOTA-Bn, metal Lu; mean ± SD
Protocol: as §3, §4

[10] = molecular target: DOTA-Bn-Y; experiment: as above; type: binding; conditions: hapten DOTA-Bn, metal Y; mean ± SD
Protocol: as §3, §4

[11] = molecular target: DOTA-Ga; experiment: as above; type: binding; conditions: hapten DOTA, metal Ga; mean ± SD
Protocol: as §3, §4

[12] = molecular target: DOTA-Gd; experiment: as above; type: binding; conditions: hapten DOTA, metal Gd; mean ± SD
Protocol: as §3, §4

[13] = molecular target: DOTA-In; experiment: as above; type: binding; conditions: hapten DOTA, metal In; mean ± SD
Protocol: as §3, §4

[14] = molecular target: DOTA-Lu; experiment: as above; type: binding; conditions: hapten DOTA, metal Lu; mean ± SD
Protocol: as §3, §4

[15] = molecular target: DOTA-Y; experiment: as above; type: binding; conditions: hapten DOTA, metal Y; mean ± SD
Protocol: as §3, §4

[16] = test system: DOTA-Bn-biotin-Y; experiment: Dissociation kinetics, yeast surface-displayed scFv; type: binding
Protocol: Dissociation Kinetics. To determine the dissociation rate, koff, for DOTA-Bn-biotin complexes, cells were induced and washed as above, and 1×10^7 cells were incubated in 1 mL PBSA with 1 nM DOTA-Bn-biotin-metal for 1 h to reach saturation. Subsequently, the yeast were washed with 1 mL PBSA, resuspended in 1 mL PBSA with 1 μM (excess) non-biotinylated antigen as competitor and split into 100 μL aliquots. These aliquots were incubated at 37° C. for different lengths of time, then washed with cold PBSA and left on ice. All samples were simultaneously stained with streptavidin-phycoerythrein for 10-20 min and analyzed by flow cytometry. The data was fit to the following equation by least squares regression, varying MFUmin, MFUrange and koff: MFUtot=MFUmin+MFUrangee^−k^off^t For nonbiotinylated antigens, the procedure was identical except that initial saturation was with the nonbiotinylated antigen and DOTA-Bn-biotin-metal was used as competitor. The data followed the expression MFUtot=MFUmin+MFUrange(1−e^−k^off^t)

- blood activity ([1]; 48 h, PRIT protocol): not measurable above background
- dose-limiting organ ([3]; predicted from radiation dose estimates): red marrow
- liver and intestine uptake [4]: slightly lower
Molecule: O=C([O-])CN1CCN(CC(=O)[O-])CCN(CC(=O)[O-])CCN(CC(=O)[O-])CC1.[177Lu+3].[H+] [^177Lu-DOTA]
- LS174T tumor to blood ratio ([1]; 4 h, PRIT protocol): 18+/−2
- LS174T tumor to kidney ratio ([1]; 4 h, PRIT protocol): approximately 8
- tumor uptake relative to hapten alone ([1]; 4 h, antigen-positive tumor, versus ^177Lu-DOTA alone): 84 fold
- tumor uptake, antigen-positive tumor ([1]; 4 h post-injection of radiolabeled DOTA, 500 μg bsAb, 250 μg dextran-DOTA-Y 24 h later, hapten 1 h later): 7.44+/−0.41 % ID/g
- tumor uptake/activity, antigen-positive LS174T tumor ([1]; 24 h): ~14 % ID/g and 14.3+/−1.8 % ID/g
- tumor uptake relative to hapten of ~1 nM affinity ([1]; 24 hours, affinity ~100 pM versus ~1 nM): 8 fold
- tumor uptake relative to hapten of ~10 nM affinity ([1]; 24 hours, affinity ~100 pM versus ~10 nM): 28 fold
- tumor uptake, antigen-negative tumor ([2]; 4 h): 9.82+/−0.35 % ID/g
- tumor activity, antigen-negative tumor ([2]; 24 h): 4.23+/−0.54 % ID/g
- tumor activity, antigen-negative tumor ([2]; 48 h): 2.89+/−2.28 % ID/g
- estimated dose to the tumor ([3]; at a red marrow dose of 1.5 Gy, estimated from mouse biodistribution, self-dose only): 156 Gy

Molecule: O=C([O-])CN1CCN(CC(=O)[O-])CCN(CC(=O)[O-])CCN(CC(=O)[O-])CC1.[111In+3] [^111In-DOTA]
- LS174T tumor to kidney ratio ([1]; 24 h, PRIT protocol): 1.2+/−0.4
- tumor uptake/activity, antigen-positive LS174T tumor ([1]; 24 h): 0.5+/−0.1 % ID/g

- Kd [5]: 8.2 ± 1.9 pM
- Kd [6]: 52000 ± 12000 pM
- Kd [7]: 34 ± 5.3 pM
- Kd [8]: 1010 ± 40 pM
- Kd [9]: 10.8 ± 2.5 pM
- Kd [10]: 15.4 ± 2 pM
- Kd [11]: 216000 ± 26000 pM
- Kd [12]: 149 ± 6 pM
- Kd [13]: 23700 ± 3700 pM
- Kd [14]: 390 ± 14 pM
- Kd [15]: 103 ± 35 pM
B1: C8.2.5: high-affinity disulfide-stabilized DOTA-binding scFv affinity matured from 2D12.5; residues 1-244 are SEQ ID NO:12 (protein)
scFv: HVKLQESGPGLVQPSQSLSLTCTVSGFSLTDYGVHWVRQSPGKGLEWLGVIWSGGGTAYNTALISRLNIYRDNSKNQVFLEMNSLQAEDTAMYYCARRGSYPYNYFDAWGCGTTVTVSSGGGGSGGGGSGGGGSQAVVIQESALTTPPGETVTLTCGSSTGAVTASNYANWVQEKPDHCFTGLIGGHNNRPPGVPARFSGSLIGDKAALTIAGTQTEDEAIYFCALWYSDHWVIGGGTRLTVLGGSEQKLISEEDL
- dissociation half-time [16]: over 5 hours

- Kd [5]: 3700 ± 3600 pM
B2: 2D12.5ds: original 2D12.5 scFv with the addition of the intramolecular disulfide bond and removed glycosylation site (SEQ ID NO:2) (protein)
scFv: QVKLQESGPGLVQPSQSLSITCTVSGFSLTDYGVHWVRQSPGKGLEWLGVIWSGGGTAYTAAFISRLNIYKDNSKNQVFFEMNSLQAEDTAMYYCARRGSYPYNYFDVWGCGTTVTVSSGGGGSGGGGSGGGGSQAVVTQESALTTSPGETVTLTCRSSTGAVTTSNYANWVQEKPDHCFTGLIGGNNNRPPGVPARFSGSLIGDKAALTIAGTQTEDEAIYFCALWYSNHWVFGGGTRLTVLG
- dissociation half-time [16]: 5.5 min
